Results reported in patent US20080287490A1, “Bis-pyridino containing compounds for the use in the treatment of CNS pathologies” (UNIVERSITY OF KENTUCKY RESEARCH FOUNDATION, priority 2005, published 2008).
Like-named read-outs stand apart in the source and are kept apart here.

Key:
[1] = test system: nAChR mediating nicotine-evoked [^3H]DA release (α3β2* receptor subtype); assay type: cell-based, rat; conditions: read-out: IC50, S-(−)-nicotine-evoked [^3H]DA release
Protocol: Slices were rinsed with 15 mL of fresh buffer and incubated for an additional 30 minutes in fresh buffer containing 0.1 μM [^3H]DA (6 slices/3 ml). Subsequently, slices were rinsed with 15 ml of fresh buffer and transferred to a glass superfusion chamber.
Radioactivity in the superfusate and tissue samples was determined by liquid scintillation spectroscopy. […] Basal [^3H]outflow was calculated from the average of the tritium collected in the two five minute samples just before addition of the bis-alkyl pyridino analog. […] [^3H]Overflow was calculated by subtracting the [^3H]outflow during an equivalent period of prestimulation from the values in samples collected during and after drug exposure. Inasmuch as the radiolabelled compounds were not separated and identified, the tritium collected in superfusate is referred to as either [^3H]outflow or [^3H]overflow, rather than as [^3H]DA.

[2] = molecular target: T1, α7-type neuronal nicotinic acetylcholine receptors (Rattus norvegicus, UniProt Q05941); assay: biochemical; conditions: read-out: Ki, [^3H]MLA binding
T1 construct: Rat brain was dissected into the whole brain tissue without cortex, striatum and cerebellum; from tissue; host or cells: rat brain (without cortex, striatum, cerebellum) membranes

[3] = molecular target: T1, α7-type neuronal nicotinic acetylcholine receptors; assay type: binding; conditions: read-out: Ki, [^3H]MLA binding
Protocol: Rat brain was dissected into the whole brain tissue without cortex, striatum and cerebellum and was frozen in liquid nitrogen and stored at −70° C. until use.
The brain tissue was homogenized with a Tekmar Polytron (setting 40) in 20 volumes of ice-cold hypotonic buffer (2 mM HEPES, 14.4 mM NaCl, 0.15 mM KCl, 0.2 mM CaCl2 and 0.1 mM MgSO4, pH=7.5). The homogenate was incubated at 37° C. for ten minutes and centrifuged at 25,000×g for 15 minutes at […] The pellet was washed three times more by resuspension in the 20 volumes of the same buffer and centrifugation at the above parameters. The final pellet was stored at −20° C. under 4.6 ml of the incubation buffer and was suspended just before the incubation with radioligand.
[^3H]MLA (25.4 Ci/mmol) was purchased from Tocris Cookson Ltd., Bristol, U.K. Binding was performed in duplicate, in a final volume of 250 μl of the incubation medium, containing 20 mM HEPES, 144 mM NaCl, 1.5 mM KCl, 2 mM CaCl2, 1 mM MgSO4 and 0.05% BSA, pH=7.5. Reaction was initiated by the addition of 100 μl of membrane suspension to the samples containing a desired concentration of test compounds and […] [^3H] MLA (final concentration) and incubated for 2 hours at room temperature. […] The binding reaction was terminated by dilution of samples with 3 ml of ice-cold incubation buffer followed by immediate filtration through presoaked in 0.5% polyethylenimine glass fiber filters (S&S, grade #32) using a Brandel harvester system. Filters were rinsed three times with 3 ml of ice-cold buffer, transferred to scintillation-vials and 4 ml of scintillation cocktail was added. Protein was measured using the Bradford dye-binding procedure with bovine serum albumin as the standard.

[4] = test system: nAChR subtypes mediating nicotine-evoked [^3H]-dopamine overflow; conditions: read-out: Nicotine-evoked [^3H]DA Overflow IC50
[5] = molecular target: T2, Rat Striatal Nicotinic Acetylcholine Receptors ([^3H]nicotine binding sites) (Rattus norvegicus, UniProt P09483+P12390); assay: biochemical; conditions: read-out: Ki, specific binding of [^3H]-nicotine
T2 construct: Striata from two rats were dissected, pooled, and homogenized; from tissue; host or cells: rat striatum membranes
Protocol: Striata from two rats were dissected, pooled, and homogenized with a Tekmar polytron in 10 volumes of ice-cold modified Krebs-HEPES buffer (20 mM HEPES, 118 mM NaCl, 4.8 mM KCl, 2.5 mM CaCl2, 1.2 mM MgSO4, adjusted to pH 7.5). The homogenates were incubated at 37° C. for five minutes and centrifuged at 15,000 g for 20 minutes. The pellet was resuspended in ten volumes of ice-cold MilliQ water, incubated for five minutes at 37° C., and centrifuged at 15,000 g for 20 minutes The second pellet was then resuspended in ten volumes of fresh ice-cold 10% Krebs-HEPES buffer, incubated at 37° C., and centrifuged at 15,000 g for 20 minutes. The latter sequence of resuspension, incubation, and centrifugation was repeated. The pellet was frozen under fresh 10% Krebs-HEPES buffer and stored at −40° C. until assay. Upon assay, the pellet was resuspended in the Krebs-HEPES buffer, incubated at 37° C. for five minutes, and centrifuged at 15,000 g for 20 minutes. The final pellet was resuspended in 3.6 ml ice-cold MilliQ water which provided for approximately 200 μg protein per 100 μl aliquot. Competition assays were performed in duplicate in a final volume of 200 μl Krebs-HEPES buffer containing […] Tris buffer (pH 7.5 at 4° C.). […] After a 90 minute incubation at 4° C., reactions were terminated by dilution of the samples with 3 ml of ice-cold Krebs-HEPES buffer followed immediately by filtration through Whatman GF/B glass fiber filters (presoaked in 0.5% polyethyleneimine) using a Brandel Cell Harvester. Filters were rinsed three times with 3 ml of ice-cold Krebs-HEPES buffer, transferred to scintillation vials, and 5 ml scintillation cocktail (Research Products International Corp., Mt. Prospect, Ill.) added. […] Binding parameters were determined using the weighted, least squares non-linear regression.

[6] = rat striatal slices, nicotine 10 μM
[7] = rat brain membranes, 2.5 nM [^3H]-MLA
[8] = rat striatal membranes, 3 nM [^3H]-nicotine

T2 sequence (P09483 31-630): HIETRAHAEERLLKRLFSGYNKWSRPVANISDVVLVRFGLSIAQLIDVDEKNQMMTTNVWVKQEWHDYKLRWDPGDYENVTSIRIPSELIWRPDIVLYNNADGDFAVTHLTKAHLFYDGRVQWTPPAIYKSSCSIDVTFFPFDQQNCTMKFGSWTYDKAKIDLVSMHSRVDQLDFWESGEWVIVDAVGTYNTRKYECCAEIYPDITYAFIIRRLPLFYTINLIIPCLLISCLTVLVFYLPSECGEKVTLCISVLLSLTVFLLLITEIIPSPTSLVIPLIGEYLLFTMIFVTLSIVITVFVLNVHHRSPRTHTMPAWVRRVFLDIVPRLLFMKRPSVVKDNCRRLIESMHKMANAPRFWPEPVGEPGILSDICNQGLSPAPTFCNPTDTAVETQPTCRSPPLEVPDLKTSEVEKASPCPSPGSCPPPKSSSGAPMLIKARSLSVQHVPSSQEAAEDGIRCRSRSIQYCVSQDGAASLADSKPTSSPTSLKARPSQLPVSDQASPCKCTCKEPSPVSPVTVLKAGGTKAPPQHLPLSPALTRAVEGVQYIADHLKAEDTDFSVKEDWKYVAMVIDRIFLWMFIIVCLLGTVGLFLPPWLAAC
T2 sequence (P12390 25-500): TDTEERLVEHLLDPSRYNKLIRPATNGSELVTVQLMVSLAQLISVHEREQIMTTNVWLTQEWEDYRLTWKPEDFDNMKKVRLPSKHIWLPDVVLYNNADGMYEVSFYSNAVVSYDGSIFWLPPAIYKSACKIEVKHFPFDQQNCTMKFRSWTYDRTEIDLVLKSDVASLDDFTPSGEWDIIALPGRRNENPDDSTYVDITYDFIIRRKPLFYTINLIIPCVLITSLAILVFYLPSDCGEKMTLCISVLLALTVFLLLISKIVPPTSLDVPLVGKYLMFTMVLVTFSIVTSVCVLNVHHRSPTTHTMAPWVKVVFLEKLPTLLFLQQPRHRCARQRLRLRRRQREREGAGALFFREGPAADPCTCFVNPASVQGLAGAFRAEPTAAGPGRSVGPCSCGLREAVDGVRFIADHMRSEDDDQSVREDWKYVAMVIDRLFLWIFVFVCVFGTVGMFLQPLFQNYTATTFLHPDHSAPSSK
T1 sequence (Q05941 23-502): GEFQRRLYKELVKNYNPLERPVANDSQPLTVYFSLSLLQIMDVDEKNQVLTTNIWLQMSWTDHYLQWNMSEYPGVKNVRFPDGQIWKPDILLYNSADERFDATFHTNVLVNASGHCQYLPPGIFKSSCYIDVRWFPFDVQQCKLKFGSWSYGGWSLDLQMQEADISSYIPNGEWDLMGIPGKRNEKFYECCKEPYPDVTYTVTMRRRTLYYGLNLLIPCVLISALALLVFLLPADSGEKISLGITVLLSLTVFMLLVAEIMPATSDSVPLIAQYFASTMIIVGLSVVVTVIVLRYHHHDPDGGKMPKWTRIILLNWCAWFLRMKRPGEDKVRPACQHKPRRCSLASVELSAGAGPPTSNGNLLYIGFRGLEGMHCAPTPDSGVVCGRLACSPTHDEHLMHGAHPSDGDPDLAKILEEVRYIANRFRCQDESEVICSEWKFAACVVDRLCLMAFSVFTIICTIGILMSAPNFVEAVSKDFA

| Compound | IC50 [1, 6] [µM] | Ki [2, 7] [µM] | Ki [5, 8] [µM] | other results |
| --- | --- | --- | --- | --- |
| c1ccc2c(c1)ccc[n+]2CCCCCCCCCC[n+]1cccc2ccccc21 [bQDI, N,N′-Decane-1,10-diyl-bis-quinolinium Diiodide] | 8.99 | 7.32 | – | – |
| N,N′-Undecane-1,11-diyl-bis-picolinium Dibromide [bPiUB] | – | – | – | Ki [3]: > 100 µM; IC50 [1]: 1.61 µM; IC50 [4]: 1.61 µM |
| c1ccc2c(c1)ccc[n+]2CCCCCCCCCCC[n+]1cccc2ccccc21 [bQUB, N,N′-Undecane-1,11-diyl-bis-quinolinium Dibromide] | 12 | 2.44 | 38.3 | – |
| CN1CCC[C@H]1c1ccc[n+](CCCCCCCCCCC[n+]2cccc([C@@H]3CCCN3C)c2)c1 [bNUB, N,N′-Undecane-1,11-diyl-bis-nicotinium Dibromide] | > 100 | – | 0.37 | – |
| c1cc[n+](CCCCCCCC[n+]2ccccc2)cc1 [bPOI, N,N′-Octane-1,8-diyl-bis-pyridinium Diiodide] | > 1 | – | 33.9 | – |
| α-Bungarotoxin [reference compound] | – | – | – | Ki [3]: 0.0286 ± 0.0054 µM |
| CO[C@H]1CC=C2CCN3CCC4=C(CC(=O)OC4)[C@]23C1 [DHβE, dihydro-β-erthyroidine, reference compound] | – | – | – | IC50 [1]: 1 µM; Ki [5]: 0.15 µM |
| c1ccc2c(c1)ccc[n+]2CCCCCCCCC[n+]1cccc2ccccc21 [bQNB, N,N′-Nonane-1,9-diyl-bis-quinolinium Dibromide] | 17.3 | 3.4 | 20.1 | – |
| CCCCCCCCC[n+]1cccc2c1CCC1CCN(C)C21 (stereo not shown) [BCN] | – | – | – | IC50 ([4]; Table 6, mean (standard error)): 0.31 µM |
| CCCCCCCCCCCC[n+]1ccc2c(c1)[C@@H]1[C@H](CC2)CCN1C [ACDD] | – | – | – | IC50 ([4]; Table 6, mean (standard error)): 0.22 µM |
| c1cc[n+](CCCCCCCCCCC[n+]2ccccc2)cc1 [bPUB, N,N′-Undecane-1,11′-diyl-bis-pyridinium Dibromide] | > 100 | – | 14.4 | Ki [2]: 50.2 µM |
| c1ccc2c(c1)ccc[n+]2CCCCCC[n+]1cccc2ccccc21 [bQHxI, N,N′-Hexane-1,6-diyl-bis-quinolinium Diiodide] | > 100 | – | > 100 | Ki ([3]; rat brain membranes, […] [^3H]-MLA): 13.3 µM |
| CCCCCCCCCCCCCCCCCCCC[n+]1ccccc1 [NEcPB] | – | – | – | IC50 ([4]; Table 5, mean (95% confidence interval)): 0.12 µM |
| c1ccc2c[n+](CCCCCCCCCCC[n+]3ccc4ccccc4c3)ccc2c1 [bIQUB, N,N′-Undecane-1,11-diyl-bis-isoquinolinium Dibromide] | 0.49 | 24.1 | 9.02 | – |
| c1cc[n+](CCCCC[n+]2ccccc2)cc1 [bPPeI, N,N′-Pentane-1,5-diyl-bis-pyridinium Diiodide] | > 100 | – | > 100 | – |
| c1ccc2c(c1)ccc[n+]2CCCCCCCC[n+]1cccc2ccccc21 [bQOI, N,N′-Octane-1,8-diyl-bis-quinolinium Diiodide] | 10.7 | 2.01 | – | – |
